Source: the supplement of paper PMC10307832

Assays:
Assay in all cases: relative viability (nuclei count vs DMSO), 5 days (fraction); higher = more cells survive
Veliparib + Decitabine = compound: C[C@]1(c2nc3c(C(N)=O)cccc3[nH]2)CCCN1 [Veliparib] + Nc1ncn([C@H]2C[C@H](O)[C@@H](CO)O2)c(=O)n1 [Decitabine] (partner 2 µM)
Summary of the method: (§1)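 Lung cancer cell lines, seeded in 1536-well plates, were treated the following day by pin tool with a single drug or with five library-drug doses (not always all listed) in √10 steps on top of a fixed anchor-drug dose. Cells were fixed and nuclei stained in one step after 5 days, and nuclei were counted. Relative viability is the nuclei count for treated wells divided by that for vehicle wells, reported as medians of duplicate plates.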

Veliparib + Palbociclib = compound: C[C@]1(c2nc3c(C(N)=O)cccc3[nH]2)CCCN1 [Veliparib] + CC(=O)c1c(C)c2cnc(Nc3ccc(N4CCNCC4)cn3)nc2n(C2CCCC2)c1=O [Palbociclib] (partner 0.5 µM)
Summary of the method: as §1

[1] = compound: COC1=CC=C(C=C1)CN2C=CC3=C2C=C(C=C3)C(=O)NO + C[C@@H](Oc1cc(-c2cnn(C3CCNCC3)c2)cnc1N)c1c(Cl)ccc(F)c1Cl [Crizotinib] (partner 1 µM)
Summary of the method: as §1

[2] = compound: COC1=CC=C(C=C1)CN2C=CC3=C2C=C(C=C3)C(=O)NO + C[C@]1(O)C[C@@H](c2nc(-c3ccc4ccc(-c5ccccc5)nc4c3)c3c(N)nccn32)C1 [Linsitinib] (partner 1 µM)
Summary of the method: as §1

Cell Line	relative viability (Veliparib + Decitabine; first compound 0.02 µM)	relative viability (Veliparib + Decitabine; first compound 0.06325 µM)	relative viability (Veliparib + Decitabine; first compound 0.2 µM)	relative viability (Veliparib + Decitabine; first compound 0.6325 µM)	relative viability (Veliparib + Decitabine; first compound 2 µM)	relative viability (Veliparib + Palbociclib; first compound 0.02 µM)	relative viability (Veliparib + Palbociclib; first compound 0.06325 µM)	relative viability (Veliparib + Palbociclib; first compound 0.2 µM)	relative viability (Veliparib + Palbociclib; first compound 0.6325 µM)	relative viability (Veliparib + Palbociclib; first compound 2 µM)	relative viability ([1]; first compound 0.08 µM)	relative viability ([1]; first compound 0.253 µM)	relative viability ([1]; first compound 0.8 µM)	relative viability ([1]; first compound 2.53 µM)	relative viability ([1]; first compound 8 µM)	relative viability ([2]; first compound 0.08 µM)	relative viability ([2]; first compound 0.253 µM)	relative viability ([2]; first compound 0.8 µM)	relative viability ([2]; first compound 2.53 µM)	relative viability ([2]; first compound 8 µM)
NCI-H1666	0.716	0.596	0.764	0.645	0.701	0.574	0.606	0.644	0.655	0.654	1.18	1.08	1.08	0.992	1.03	0.696	0.892	0.757	0.76	0.901
NCI-H1734	–	0.374	0.389	0.33	0.35	–	0.32	0.351	0.323	0.349	–	0.678	0.683	0.6	0.652	–	0.953	0.871	0.93	0.855
NCI-H1755	0.675	0.709	0.629	0.595	0.707	0.46	0.469	0.442	0.455	0.395	0.789	0.852	0.858	0.928	0.879	0.955	0.987	1	1.04	1.02
NCI-H1792	0.463	0.381	0.397	0.263	0.26	0.635	0.603	0.704	0.692	0.659	0.969	0.905	1.01	0.918	0.697	0.535	0.62	0.636	0.539	0.425
NCI-H1915	0.23	0.243	0.267	0.242	0.266	0.541	0.461	0.519	0.512	0.504	0.777	0.892	0.935	0.905	0.857	1.05	1.1	1.07	1.09	1.09
NCI-H1944	0.408	0.398	0.353	0.41	0.407	0.302	0.348	0.355	0.324	0.329	–	1.18	1.1	1.09	1.08	–	1.18	1.38	1.21	1.1
NCI-H1975	0.392	0.447	0.362	0.307	0.328	0.533	0.544	0.513	0.543	0.535	0.915	1.04	0.955	0.948	0.871	0.929	1.07	0.956	0.931	0.863
NCI-H1993	–	0.526	0.614	0.541	0.567	–	0.569	0.59	0.614	0.636	0.698	0.919	0.803	0.901	0.881	0.738	0.783	0.785	0.759	0.741
NCI-H2009	0.344	0.37	0.366	0.329	0.361	0.145	0.211	0.235	0.205	0.2	1.02	0.993	0.995	0.967	1.06	1.21	1.17	1.13	1.21	1.19
